How the values were obtained:
[1] = Storage stability: appearance, assay/label strength (LS), total impurities/degradation products; format: physicochemical; settings: for I/D (%): tablets, desiccant study
Protocol: In some embodiments, the film-coated tablets were packaged in 75 and 100 mL white HDPE bottles (Lots A and B, respectively, as described in Tables 11A, 11B) with 1 g silica gel desiccant canisters and a polyester fiber coil. The 75 and 100 mL HDPE bottles contained fourteen and twenty eight tablets, respectively. Each HDPE bottle was capped using a white, continuous thread, child-resistant polypropylene screw cap with an […], aluminum-faced line. The packaged tablets (14 and 28 counts) were evaluated for stability at 40° C./75% RH and 25° C./60% RH. Additionally, the 14-count bottles (without cap) were evaluated for stability under open conditions at 40° C./75% RH.
For each of the impact studies, the sofosbuvir/velpatasvir SSD/voxilaprevir SSD tablets were packaged in a designated commercial packaging configuration (28-count, 100 mL HPDE bottle, coil, 1 g desiccant), and stored for 12 weeks at 25° C./60% RH and 40° C./75% RH. Tablets were also packaged in open containers (28-count, 100 mL HPDE bottle without cap) and stored for 4 weeks at 40° C./75% RH and for 1 week at 50° C./92% RH.
The sofosbuvir/velpatasvir SSD/voxilaprevir SSD tablets were packaged in the designated commercial packaging configuration (28-count, 100 mL HPDE bottle, coil, 1 g desiccant), and stored for 6 months at 25° C./60% RH and 40° C./75% RH.

HCV RNA = assay: Emax PK/PD modeling of sofosbuvir exposure vs HCV RNA change from baseline; format: in vivo; settings: 400 mg sofosbuvir dose
Protocol: The sofosbuvir dose selected for the tablet formulation is 400 mg once daily. Support for the 400 mg sofosbuvir dose can be derived from Emax PK/PD modeling with early virological and human exposure data which also supports the selection of a 400 mg sofosbuvir dose over others tested.
The mean sofosbuvir major metabolite AUCtau for the 400 mg sofosbuvir dose is associated with approximately 77% of the maximal HCV RNA change from baseline achievable as determined by this model, a value which is on the cusp of the plateau of the exposure-response sigmoidal curve. In a sigmoidal Emax model, there is a relatively linear exposure-response relationship in the 20 to 80% maximal effect range. Therefore, given that sofosbuvir exposure with 200 mg tablets appears dose-proportional with single doses up to 1200 mg, doses below 400 mg are expected to yield considerable reductions in the magnitude of HCV RNA change from baseline.

Compound: CC(C)OC(=O)C(C)N[P@](=O)(OC[C@H]1O[C@@H](n2ccc(=O)[nH]c2=O)[C@](C)(F)[C@@H]1O)Oc1ccccc1 (stereo in doubt) [Sofosbuvir, (S)-isopropyl 2-(((S)-(((2R,3R,4R,5R)-5-(2,4-dioxo-3,4-dihydropyrimidin-1(2H)-yl)-4-fluoro-3-hydroxy-4-methyltetrahydrofuran-2-yl)methoxy)(phenoxy)phosphoryl)amino)propanoate]
- Total Imp./Deg. (%) ([1]; Batch C tablets, closed 1 g desiccant, 25° C./60% RH, 3 months): 0.0%
- Total Imp./Deg. (%) ([1]; Batch C tablets, closed 1 g desiccant, 25° C./60% RH, 6 months): 0.0%
- Total Imp./Deg. (%) ([1]; Batch C tablets, closed 1 g desiccant, 30° C./75% RH, 3 months): 0.0%
- Total Imp./Deg. (%) ([1]; Batch C tablets, closed 1 g desiccant, 30° C./75% RH, 6 months): 0.0%
- Total Imp./Deg. (%) ([1]; Batch C tablets, closed 1 g desiccant, 40° C./75% RH, 1 month): 0.0%
- Total Imp./Deg. (%) ([1]; Batch C tablets, closed 1 g desiccant, 40° C./75% RH, 3 months): 0.0%
- Total Imp./Deg. (%) ([1]; Batch C tablets, closed 1 g desiccant, 40° C./75% RH, 6 months): 0.0%
- Total Imp./Deg. (%) ([1]; Batch C tablets, closed 1 g desiccant, Initial, time 0): 0.0%
- Total Imp./Deg. Products (%) ([1]; SOF/VEL SSD/VOX SSD granules (Lot F), glass vials, Initial, 0 months): 0.0%
- total impurities/degradation products ([1]; desiccant/packaging study tablets, all conditions, 6 months): 0.0%
- total impurities/degradation products ([1]; granules (Lot F), over 6 month storage at 25° C./60% RH and 40° C./75% RH, open and closed): 0.0%
- total impurities/degradation products ([1]; packaged Formulation G tablets (Tables 11A, 11B), 40° C./75% RH and 25° C./60% RH for 6 months): 0.0%
- total impurities/degradation products ([1]; packaged tablets Batch A, up to 6 months under all conditions): 0.0%
- total impurities/degradation products ([1]; packaged tablets Batch D, up to 1 month under all conditions): 0.0%
- total impurities/degradation products ([1]; packaged tablets Batches B and C, up to 6 months under all conditions): 0.0%
- total impurities/degradation products ([1]; tablet Lots A-D from sub-potent/super-potent VEL SSD and VOX SSD, all conditions): 0.0%
- Total Imp./Deg. (%) ([1]; tablets Batch A, 25° C./60% RH, 3 mo): 0.0%
- Total Imp./Deg. (%) ([1]; tablets Batch A, 25° C./60% RH, 6 mo): 0.0%
- Total Imp./Deg. (%) ([1]; tablets Batch A, 30° C./75% RH, 3 mo): 0.0%
- Total Imp./Deg. (%) ([1]; tablets Batch A, 30° C./75% RH, 6 mo): 0.0%
- Total Imp./Deg. (%) ([1]; tablets Batch A, 40° C./75% RH, 1 mo): 0.0%
- Total Imp./Deg. (%) ([1]; tablets Batch A, 40° C./75% RH, 3 mo): 0.0%
- Total Imp./Deg. (%) ([1]; tablets Batch A, 40° C./75% RH, 6 mo): 0.0%
- Total Imp./Deg. (%) ([1]; tablets Batch A, Initial, 0 mo): 0.0%
- Total Imp./Deg. (%) ([1]; tablets Batch B, 25° C./60% RH, 3 mo): 0.0%
- Total Imp./Deg. (%) ([1]; tablets Batch B, 25° C./60% RH, 6 mo): 0.0%
- Total Imp./Deg. (%) ([1]; tablets Batch B, 30° C./75% RH, 3 mo): 0.0%
- Total Imp./Deg. (%) ([1]; tablets Batch B, 30° C./75% RH, 6 mo): 0.0%
- Total Imp./Deg. (%) ([1]; tablets Batch B, 40° C./75% RH, 1 mo): 0.0%
- Total Imp./Deg. (%) ([1]; tablets Batch B, 40° C./75% RH, 3 mo): 0.0%
- Total Imp./Deg. (%) ([1]; tablets Batch B, 40° C./75% RH, 6 mo): 0.0%
- Total Imp./Deg. (%) ([1]; tablets Batch B, Initial, 0 mo): 0.0%
- Total Imp./Deg. (%) ([1]; tablets Batch D, 40° C./75% RH, 1 mo): 0.0%
- Total Imp./Deg. (%) ([1]; tablets Batch D, Initial, 0 mo): 0.0%
- Total Imp./Deg. (%) ([1]; tablets Lot A, 25° C./60% RH Closed, 1 mo): 0.0%
- Total Imp./Deg. (%) ([1]; tablets Lot A, 25° C./60% RH Closed, 3 mo): 0.0%
- Total Imp./Deg. (%) ([1]; tablets Lot A, 25° C./60% RH Closed, 6 mo): 0.0%
- Total Imp./Deg. (%) ([1]; tablets Lot A, 40° C./75% RH Closed, 1 mo): 0.0%
- Total Imp./Deg. (%) ([1]; tablets Lot A, 40° C./75% RH Closed, 3 mo): 0.0%
- Total Imp./Deg. (%) ([1]; tablets Lot A, 40° C./75% RH Closed, 6 mo): 0.0%
- Total Imp./Deg. (%) ([1]; tablets Lot A, 40° C./75% RH Open, 1 mo): 0.0%
- Total Imp./Deg. (%) ([1]; tablets Lot A, 40° C./75% RH Open, 3 mo): 0.0%
- Total Imp./Deg. (%) ([1]; tablets Lot A, 40° C./75% RH Open, 6 mo): 0.0%
- Total Imp./Deg. (%) ([1]; tablets Lot A, Initial, 0 mo): 0.0%
- Total Imp./Deg. (%) ([1]; tablets Lot B, 25° C./60% RH Closed, 1 mo): 0.0%
- Total Imp./Deg. (%) ([1]; tablets Lot B, 25° C./60% RH Closed, 3 mo): 0.0%
- Total Imp./Deg. (%) ([1]; tablets Lot B, 25° C./60% RH Closed, 6 mo): 0.0%
- Total Imp./Deg. (%) ([1]; tablets Lot B, 40° C./75% RH Closed, 1 mo): 0.0%
- Total Imp./Deg. (%) ([1]; tablets Lot B, 40° C./75% RH Closed, 3 mo): 0.0%
- Total Imp./Deg. (%) ([1]; tablets Lot B, 40° C./75% RH Closed, 6 mo): 0.0%
- Total Imp./Deg. (%) ([1]; tablets Lot B, Initial, 0 mo): 0.0%
- total impurities/degradation products ([1]; tablets from SSDs made with high-peroxide copovidone (544 ppm VEL SSD, 655 ppm VOX SSD)): 0.0%
- Total Imp./Deg. (%) ([1]; tablets from VEL SSD 7.0% / VOX SSD 3.2% water content, Initial, time 0): 0.0%
- Total Imp./Deg. (%) ([1]; tablets from VEL SSD 7.0% / VOX SSD 3.2% water content, closed, 1 g desiccant, 25° C./60% RH, 12 weeks): 0.0%
- Total Imp./Deg. (%) ([1]; tablets from VEL SSD 7.0% / VOX SSD 3.2% water content, closed, 1 g desiccant, 40° C./75% RH, 4 weeks): 0.0%
- Total Imp./Deg. (%) ([1]; tablets from VEL SSD 7.0% / VOX SSD 3.2% water content, closed, 1 g desiccant, 40° C./75% RH, 12 weeks): 0.0%
- Total Imp./Deg. (%) ([1]; tablets from VEL SSD 7.0% / VOX SSD 3.2% water content, open, no desiccant, 40° C./75% RH, 4 weeks): 0.0%
- total impurities/degradation products ([1]; tablets from VEL SSD with 6.0% residual ethanol and VOX SSD with 2.1% residual acetone, all conditions): 0.0%
- total impurities/degradation products ([1]; tablets from VEL SSD with 7.0% and VOX SSD with 3.2% water content, all conditions): 0.0%
- Total Imp./Deg. (%) ([1]; tablets from copovidone with 544 ppm (VEL SSD) / 655 ppm (VOX SSD) peroxides, Initial, time 0): 0.0%
- Total Imp./Deg. (%) ([1]; tablets from copovidone with 544 ppm (VEL SSD) / 655 ppm (VOX SSD) peroxides, closed, 1 g desiccant, 25° C./60% RH, 12 weeks): 0.0%
- Total Imp./Deg. (%) ([1]; tablets from copovidone with 544 ppm (VEL SSD) / 655 ppm (VOX SSD) peroxides, closed, 1 g desiccant, 40° C./75% RH, 4 weeks): 0.0%
- Total Imp./Deg. (%) ([1]; tablets from copovidone with 544 ppm (VEL SSD) / 655 ppm (VOX SSD) peroxides, closed, 1 g desiccant, 40° C./75% RH, 12 weeks): 0.0%
- Total Imp./Deg. (%) ([1]; tablets from copovidone with 544 ppm (VEL SSD) / 655 ppm (VOX SSD) peroxides, open, no desiccant, 40° C./75% RH, 4 weeks): 0.0%
- I/D (%) ([1]; closed, 1 g desiccant, 25° C./60% RH, 12 weeks): 0.0%
- I/D (%) ([1]; closed, 1 g desiccant, 25° C./60% RH, 24 weeks): 0.0%
- I/D (%) ([1]; closed, 1 g desiccant, 40° C./75% RH, 4 weeks): 0.0%
- I/D (%) ([1]; closed, 1 g desiccant, 40° C./75% RH, 12 weeks): 0.0%
- I/D (%) ([1]; closed, 1 g desiccant, 40° C./75% RH, 24 weeks): 0.0%
- I/D (%) ([1]; closed, no desiccant, 25° C./60% RH, 12 weeks): 0.0%
- I/D (%) ([1]; closed, no desiccant, 25° C./60% RH, 24 weeks): 0.0%
- I/D (%) ([1]; closed, no desiccant, 40° C./75% RH, 4 weeks): 0.0%
- I/D (%) ([1]; closed, no desiccant, 40° C./75% RH, 12 weeks): 0.0%
- I/D (%) ([1]; closed, no desiccant, 40° C./75% RH, 24 weeks): 0.0%
- fraction of the maximal HCV RNA change from baseline achievable (Emax model) associated with mean major metabolite AUCtau (HCV RNA): approximately 77%

— patent US10912814B2, “Combination formulation of three antiviral compounds” (priority 2016, dated 2021)
